Measurements taken from PMC7287882, “Dual miRNases for Triple Incision of miRNA Target: Design Concept and Catalytic Performance” (Molecules, 2020).

Assays:
[1] = test system: miR-18a; experiment: Ribonuclease activity assay at different concentrations of MgCl2; type: biochemical; conditions: 50 mM Tris-HCl pH 7.0, 100 mM KCl, 1 mM DTT, 0.02 mg/mL BSA, 37 °C, 48 h; for Cleavage: miRNA 1 µM, DC 20 µM, mean ± s.e.
Description: In order to understand the effect of Mg^2+ ions on the efficiency and specificity of miRNA cleavage by DCs, miR-18a was incubated with the matching DC in the buffer containing 50 mM Tris-HCl, pH 7.0, 100 mM KCl, 1 mM DTT, 0.02 mg/mL BSA, but with different Mg^2+ concentration varied from 0 to 15 mM.
Reaction with different concentration of MgCl2 was performed in reaction mixtures (8 µL) containing 320 cpm (Cherenkov’s counting) of [^32P]-miR-18a, 1 μM unlabeled miRNA, 20 µM of miR-18a-DC in buffers contained 100 mM KCl, 50 mM Tris-HCl pH 7.0, 1mM DTT, 0.02 mg/mL BSA and MgCl2 at concentration 0, 2, 4, 8 or 15 mM at 37 °C for 48 h. RNA cleavage products were collected and analyzed as described above.

[2] = test system: miR-21; experiment: Ribonuclease activity assay with DC or ON and RNase H, miR-21; type: biochemical
Description: It is known that DNA-like antisense oligonucleotides after binding to target RNAs form a substrate for intracellular endonuclease RNases H. RNA hydrolysis in RNA-DNA heteroduplex by RNase H1 occurs at a distance of 6–10 nucleotides from the 5′-end of RNA (approximately one turn of the helix). Our design of the Dual conjugates here was carried out in such a way to ensure that their heteroduplexes with the matching miRNA sequences could serve as potential substrates for RNase H. To achieve that, we ensured that the length of the oligonucleotide recognition motifs A and B within the DC was 8–10 nt, which was expected to be sufficient for interaction and cleavage by RNase H (see Figure 1 and Table 1). As indicated above, a few adenine aromatic basis within each recognition motifs A and B were replaced with 2-aminoadenines to enhance the hybridization ability of the DC with miRNA. […] In order to verify this, as well as to evaluate the ability of RNase H to contribute to the miRNA cleavage catalyzed by DC, we studied the kinetics of the target miRNA cleavage performed (1) by the DC alone; (2) by RNase H, when the target miRNA was hybridized with the nonconjugated Dual oligonucleotide (ON); and (3) by both DC and RNase H present in the same reaction mixture. The study was performed against miR-17, miR-155 and miR-21 using a 20-fold excess of DCs or respective oligonucleotides over the matching miRNA (see Table 1 for sequences).
Figure 6 Cleavage kinetics of 5′-[^32P]-labeled miRNAs by DCs and/or RNase H. (a,d,g). Radioautographs of 18% denaturing PAAG showing the profiles of cleavage of miR-17, miR-155 and miR-21, respectively. Duplexes formed by 5′-[^32P]-miRNA (1 µM) and DC or ON (20 µM) were incubated at 37 °C for 48–72 h. RNase H was taken in the concentration of 5 or 100 u/mL. Lanes Im and T1–imidazole ladder and partial RNA digestion with RNase T1, respectively; control–RNA was incubated in the absence of DC or ON and in the presence of RNase H (100 u/mL); (b,e,h) Time dependency of cleavage of miR-17, miR-155 and miR-21, respectively, by DCs and/or RNase H. Data are presented as mean ± s.e. *—indicates statistically significant difference with p < 0.05; (c,f,i). […]
The reaction mixture (10 µL) containing 20 mM Tris-HCl, pH 7.8, 40 mM KCl, 8 mM MgCl2, 1 mM DTT, 0.02 mg/mL BSA, 800 cpm (Cherenkov’s counting) of [^32P]-miRNA, 1 µM unlabeled miRNA, 20 µM either DC or Dual oligonucleotide was incubated at 37 °C for 20 min then RNase H (5 or 100 U/mL) was added and the mixture was further incubated for 48 h. Aliquots were taken at 0, 1, 6, 24 and 48 h then the reaction was quenched, RNA cleavage products were collected and analyzed as described above.

Substance | Cleavage ([1]; Mg2+ 0 mM) | Cleavage ([1]; Mg2+ 2 mM) | Cleavage ([1]; Mg2+ 4 mM) | Cleavage ([1]; Mg2+ 8 mM) | Cleavage ([1]; Mg2+ 15 mM) | ribonuclease activity of DC (cleavage), unaffected by addition of Mg2+ ([1]; Mg2+ varied from 0 to 15 mM) | increase in rate of cleavage by DC in the presence of RNase H ([2]; RNase H 5 u/mL, versus DC alone) | total extent of cleavage by DC and RNase H ([2]; RNase H 5 u/mL, miRNA 1 µM, DC 20 µM, buffer (2), 37 °C) | increase in rate of cleavage compared with DC alone ([2]; RNase H 100 u/mL) | cleavage by DC and RNase H ([2]; RNase H 100 u/mL, completed in the first hour of incubation)
TATCTGC–linker 1–[GRLRL]2–linker 2–ATGCACCTTA [miRNA-18a-DC, Dual oligonucleotide-peptide conjugate targeted to miR-18a: catalytic peptide [LRLRG]2 between two 2-aminoadenine-containing oligodeoxyribonucleotides] | 26.4±4.0% | 28.8±3.9% | 24.3±2.7% | 23.1±3.1% | 27.2±4.3% | approximately 26% | – | – | – | –
TCAACATC–linker 1–[GRLRL]2–linker 2–GATAAGCTA [miRNA-21-DC, Dual oligonucleotide-peptide conjugate targeted to miR-21: catalytic peptide [LRLRG]2 between two 2-aminoadenine-containing oligodeoxyribonucleotides] | – | – | – | – | – | – | 4 fold | 40% | 20 fold | 100%
